Reference: patent publication US20080090805A1, “CB-1 MODULATING COMPOUNDS AND THEIR USE” (ACADIA PHARMACEUTICALS INC., priority 2005, published 2008)
Where two headings read alike, the source gives them in different places.

What was measured:
[1] = biological target: native CB1 receptors (Rattus norvegicus, UniProt P20272); test: CB1 receptor rat binding assay ([3H]SR141716A, rat brain membranes)
[2] = biological target: human CB1 receptor (Homo sapiens, UniProt P21554); test: CB1 receptor human binding assay ([3H]SR141716A, transfected HEK-293 T membranes); details: human CB1, HEK-293 T membranes; for Ki: read-out: Binding Human pKi (converted)
[3] = in vitro; details: rat, microsomes, pH 7.4
[4] = in vitro; details: human, microsomes, pH 7.4
[5] = Clearance study, liver microsomes (mice); details: mouse, pH 7.4
[6] = Clearance study, liver microsomes (human); details: pH 7.4
[7] = Clearance study, liver microsomes (rats); details: rat, pH 7.4
[8] = biological target: hERG (Homo sapiens, UniProt Q12809); test: HERG safety study (whole cell recordings, CHO cells); details: CHO cells stably expressing hERG channels, pH 7.4
[9] = rat brain membranes, [3H]SR141716A
[10] = rat brain membranes, [3H]SR141716A, read-out: Binding rat pKi (converted)

native CB1 receptors, sequence (P20272 whole entry): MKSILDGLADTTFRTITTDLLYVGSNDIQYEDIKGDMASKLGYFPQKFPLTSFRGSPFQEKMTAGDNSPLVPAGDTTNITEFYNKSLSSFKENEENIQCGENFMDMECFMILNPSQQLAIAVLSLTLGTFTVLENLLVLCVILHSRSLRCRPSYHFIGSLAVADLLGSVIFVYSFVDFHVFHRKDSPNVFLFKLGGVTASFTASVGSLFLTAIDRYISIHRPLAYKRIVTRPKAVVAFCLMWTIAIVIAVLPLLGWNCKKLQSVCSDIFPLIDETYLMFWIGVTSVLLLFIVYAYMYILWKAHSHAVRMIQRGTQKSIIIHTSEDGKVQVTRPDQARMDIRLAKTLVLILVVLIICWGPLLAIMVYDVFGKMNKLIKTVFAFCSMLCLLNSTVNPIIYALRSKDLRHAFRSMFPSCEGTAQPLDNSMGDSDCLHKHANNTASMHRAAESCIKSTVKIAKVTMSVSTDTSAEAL
hERG, sequence (Q12809 whole entry): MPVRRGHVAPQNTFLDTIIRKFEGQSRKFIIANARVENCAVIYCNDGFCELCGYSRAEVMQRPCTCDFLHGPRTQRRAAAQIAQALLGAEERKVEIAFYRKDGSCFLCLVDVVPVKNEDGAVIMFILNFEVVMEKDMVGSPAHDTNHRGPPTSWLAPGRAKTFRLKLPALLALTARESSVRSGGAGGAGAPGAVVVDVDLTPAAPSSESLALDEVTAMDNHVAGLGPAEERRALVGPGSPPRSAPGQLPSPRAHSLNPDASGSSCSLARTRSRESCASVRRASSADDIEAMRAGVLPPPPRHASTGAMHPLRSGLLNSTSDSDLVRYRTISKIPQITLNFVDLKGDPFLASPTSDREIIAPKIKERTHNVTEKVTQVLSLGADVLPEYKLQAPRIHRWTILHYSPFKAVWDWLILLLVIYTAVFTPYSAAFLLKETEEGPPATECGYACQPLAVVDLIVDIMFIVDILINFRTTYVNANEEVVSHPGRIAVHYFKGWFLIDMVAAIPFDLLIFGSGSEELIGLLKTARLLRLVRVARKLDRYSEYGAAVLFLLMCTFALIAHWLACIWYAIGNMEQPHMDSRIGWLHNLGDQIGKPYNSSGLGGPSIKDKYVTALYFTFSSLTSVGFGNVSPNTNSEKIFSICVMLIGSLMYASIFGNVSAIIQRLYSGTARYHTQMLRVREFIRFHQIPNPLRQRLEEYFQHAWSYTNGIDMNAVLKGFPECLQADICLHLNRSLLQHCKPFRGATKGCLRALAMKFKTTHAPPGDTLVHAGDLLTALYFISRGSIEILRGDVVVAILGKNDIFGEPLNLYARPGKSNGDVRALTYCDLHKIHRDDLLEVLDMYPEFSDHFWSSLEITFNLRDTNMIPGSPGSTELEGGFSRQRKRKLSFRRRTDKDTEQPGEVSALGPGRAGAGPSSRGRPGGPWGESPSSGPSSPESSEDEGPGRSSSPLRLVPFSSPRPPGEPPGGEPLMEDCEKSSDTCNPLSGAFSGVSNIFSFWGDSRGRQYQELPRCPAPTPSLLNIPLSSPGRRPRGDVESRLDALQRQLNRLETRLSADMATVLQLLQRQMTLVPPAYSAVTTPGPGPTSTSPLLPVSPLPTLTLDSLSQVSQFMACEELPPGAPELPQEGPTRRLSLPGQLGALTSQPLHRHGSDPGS
human CB1 receptor, sequence (P21554 whole entry): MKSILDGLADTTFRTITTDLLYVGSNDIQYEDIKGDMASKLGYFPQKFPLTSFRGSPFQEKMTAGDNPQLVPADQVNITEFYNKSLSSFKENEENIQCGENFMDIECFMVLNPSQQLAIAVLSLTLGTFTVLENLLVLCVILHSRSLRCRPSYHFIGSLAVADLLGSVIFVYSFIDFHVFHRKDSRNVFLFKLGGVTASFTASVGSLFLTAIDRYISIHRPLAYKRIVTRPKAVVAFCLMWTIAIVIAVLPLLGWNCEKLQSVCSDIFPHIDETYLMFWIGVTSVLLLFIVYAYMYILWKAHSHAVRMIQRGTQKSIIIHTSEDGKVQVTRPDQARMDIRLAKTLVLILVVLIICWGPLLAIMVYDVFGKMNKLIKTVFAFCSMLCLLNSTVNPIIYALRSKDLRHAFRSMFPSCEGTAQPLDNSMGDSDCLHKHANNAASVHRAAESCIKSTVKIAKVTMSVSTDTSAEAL

Row | Binding rat Inh % [1, 9] [%] | Ki [1, 10] [nM] | Binding Human Inh % [2] [%] | Ki [2] [nM] | Structure (SMILES) | inhibition at 1 µM [8] [%] | also measured
1 | 87 | 0.501 | 92 | 0.0794 | O=C(NCCCC(F)(F)F)c1ccc2c(c1)N=C(c1ccc(Cl)cc1F)c1ccccc1S2 [drawing 1175] |  | 
2 | 91 | 0.501 | 87 | 0.158 | O=C(NCCCC(F)(F)F)c1ccc2c(c1)N=C(c1ccc(Cl)s1)c1ccccc1S2 [drawing 1176] |  | 
3 | 89 | 3.98 | 93 | 0.158 | CC(C)CNC(=O)c1ccc2c(c1)N=C(c1ccc(Cl)cc1)c1ccc(F)cc1S2 [drawing 1177] |  | 
4 | 97 | 1.58 | 76 | 0.2 | O=C(NCc1cccs1)c1ccc2c(c1)N=C(c1ccc(F)cc1)c1ccccc1S2 [drawing 1178] |  | 
5 | 98 | 2.51 | 94 | 0.251 | CCCCNC(=O)c1ccc2c(c1)N=C(c1ccc(Cl)cc1)c1ccc(F)cc1S2 [drawing 1184] |  | 
6 | 89 | 1 | 86 | 0.251 | CC(C)CCNC(=O)c1ccc2c(c1)N=C(c1cccc(Cl)c1)c1ccccc1S2 [drawing 1185] |  | 
7 | 87 | 10 | 84 | 0.316 | COc1cccc(C2=Nc3cc(C(=O)NCCCC(F)(F)F)ccc3Sc3ccccc32)n1 [drawing 1186] |  | 
8 | 101 | 2.51 | 90 | 0.316 | CCCCNC(=O)c1ccc2c(c1)N=C(c1ccc(Cl)s1)c1ccccc1S2 [drawing 1191] |  | 
9 | 96 | 1.58 | 100 | 0.398 | CC(C)CNC(=O)c1ccc2c(c1)N=C(c1ccc(Cl)c(Cl)c1)c1ccccc1S2 [drawing 1192] |  | 
10 | 80 | 1.26 | 107 | 0.631 | O=C(NC1CCCCC1)c1ccc2c(c1)N=C(c1cccc(Cl)c1)c1ccccc1S2 [drawing 1194] |  | 
11 | 94 | 5.01 | 77 | 0.631 | CC(C)CNC(=O)c1ccc2c(c1)N=C(c1ccc(Cl)cc1F)c1ccccc1S2 [drawing 1199] |  | 
12 | 100 | 5.01 | 92 | 0.631 | CC(C)CNC(=O)c1ccc2c(c1)N=C(c1ccc(Cl)s1)c1ccc(Cl)cc1S2 [drawing 1200] |  | 
13 | 84 | 3.16 | 87 | 1.26 | O=C(NC1CCCCC1)c1ccc2c(c1)N=C(c1ccc(F)cc1)c1ccccc1S2 [drawing 1202] |  | 
14 | 93 | 5.01 | 96 | 1.58 | O=C(NN1CCCCCC1)c1ccc2c(c1)N=C(c1ccc(Cl)s1)c1ccccc1S2 [drawing 1208] |  | 
15 | 87 | 2 | 94 | 1.58 | O=C(NN1CCCCCC1)c1ccc2c(c1)N=C(c1cccc(Cl)c1)c1ccccc1S2 [drawing 1209] |  | 
16 | 95 | 6.31 | 74 | 2 | CCCNC(=O)c1ccc2c(c1)N=C(c1ccc(Cl)cc1)c1ccccc1S2 [drawing 1210] |  | 
17 | 79 | 158 | 89 | 6.31 | CC(C)CNC(=O)c1ccc2c(c1)N=C(c1ccccn1)c1ccccc1S2 [drawing 1217] |  | 
18 | 80 | 50.1 | 94 | 20 | COCCNC(=O)c1ccc2c(c1)N=C(c1ccc(Cl)s1)c1ccccc1S2 [drawing 1218] |  | 
19 |  |  |  |  | O=C(NCc1ccc(F)cc1)c1ccc2c(c1)N=C(c1cccc(Cl)c1)c1ccccc1S2 [drawing 1662] |  | microsomal CLint at 1 μM [3]: 76 µL/min/mg; microsomal CLint at 1 μM [4]: 27 µL/min/mg
20 |  |  |  |  | COc1cccc(C2=Nc3cc(C(=O)NC4CCC(F)(F)CC4)ccc3Sc3ccccc32)n1 [drawing 1673] |  | microsomal CLint at 1 μM [3]: 158 µL/min/mg; microsomal CLint at 1 μM [4]: 25 µL/min/mg
21 |  |  |  |  | O=C(NCCCc1ccccc1)c1ccc2c(c1)N=C(c1ccc(Cl)cc1)c1ccccc1S2 [drawing 1680] |  | microsomal CLint at 1 μM [3]: 131 µL/min/mg; microsomal CLint at 1 μM [4]: 73 µL/min/mg
22 |  |  |  |  | O=C(NN1CCCCC1)c1ccc2c(c1)N=C(c1ccc(F)cc1)c1ccccc1S2 [drawing 1685] |  | microsomal CLint at 1 μM [3]: 96 µL/min/mg; microsomal CLint at 1 μM [4]: 61 µL/min/mg
23 |  |  |  |  | O=C(NCc1ccco1)c1ccc2c(c1)N=C(c1ccc(Cl)cc1)c1ccccc1S2 [drawing 1803] |  | microsomal CLint at 1 μM [5]: 97 µL/min/mg; microsomal CLint at 1 μM [6]: 29 µL/min/mg; microsomal CLint at 1 μM [7]: 75 µL/min/mg
24 |  |  |  |  | O=C(NCCCC(F)(F)F)c1ccc2c(c1)N=C(c1ccc(Cl)cc1F)c1ccccc1S2 [drawing 1809] | 24 | 
25 |  |  |  |  | O=C(NCCCC(F)(F)F)c1ccc2c(c1)N=C(c1ccc(Cl)s1)c1ccccc1S2 [drawing 1810] | 14 | 
26 |  |  |  |  | CC(C)CNC(=O)c1ccc2c(c1)N=C(c1ccc(Cl)cc1)c1ccc(F)cc1S2 [drawing 1811] | 58 | 

Row | Binding rat Inh % [1, 9] [%] | Ki [1, 10] [nM] | Binding Human Inh % [2] [%] | Ki [2] [nM] | Structure (SMILES) | inhibition at 1 µM [8] [%] | also measured
27 |  |  |  |  | CCCCNC(=O)c1ccc2c(c1)N=C(c1ccc(Cl)cc1)c1ccccc1S2 [drawing 1812] | 49 | 
28 |  |  |  |  | CC(C)CNC(=O)c1ccc2c(c1)N=C(c1ccc(Cl)s1)c1ccccc1S2 [drawing 1813] | 26 | 
29 |  |  |  |  | O=C(NC1CCCCC1)c1ccc2c(c1)N=C(c1ccc(F)cc1)c1ccccc1S2 [drawing 1814] | 45 | 
30 |  |  |  |  | O=C(NN1CCCCCC1)c1ccc2c(c1)N=C(c1ccc(Cl)s1)c1ccccc1S2 [drawing 1816] | 30 | 
31 |  |  |  |  | O=C(NCCCC(F)(F)F)c1ccc2c(c1)N=C(c1cccc(F)c1)c1ccccc1S2 [drawing 1817] | 45 | 
32 |  |  |  |  | CC(C)CNC(=O)c1ccc2c(c1)N=C(c1cccc(Cl)c1)c1ccccc1S2 [drawing 1819] | 93 | 
33 |  |  |  |  | CCCCNC(=O)c1ccc2c(c1)N=C(c1ccc(Br)cn1)c1ccccc1S2 [drawing 1820] | 78 | 
34 |  |  |  |  | CCCCNC(=O)c1ccc2c(c1)N=C(c1ccc(Cl)cc1)c1ccc(F)cc1S2 [drawing 1821] | 34 | 
35 |  |  |  |  | CC(C)CCNC(=O)c1ccc2c(c1)N=C(c1cccc(Cl)c1)c1ccccc1S2 [drawing 1822] | 59 | 
36 |  |  |  |  | COc1cccc(C2=Nc3cc(C(=O)NCCCC(F)(F)F)ccc3Sc3ccccc32)n1 [drawing 1823] | 35 | 
37 |  |  |  |  | CCCCNC(=O)c1ccc2c(c1)N=C(c1ccc(Cl)s1)c1ccccc1S2 [drawing 1824] | 14 | 
38 |  |  |  |  | O=C(NN1CCCCCC1)c1ccc2c(c1)N=C(c1cccc(Cl)c1)c1ccccc1S2 [drawing 1825] | 97 | 
39 |  |  |  |  | CCCNC(=O)c1ccc2c(c1)N=C(c1ccc(Cl)cc1)c1ccccc1S2 [drawing 1826] | 55 | 
40 |  |  |  |  | O=C(NN1CCCCC1)c1ccc2c(c1)N=C(C1CCCCC1)c1ccccc1S2 [drawing 1828] | 29 | 
41 |  |  |  |  | O=C(NCc1cccnc1)c1ccc2c(c1)N=C(c1ccc(Cl)c(Cl)c1)c1ccccc1S2 [drawing 1830] | 40 | 
42 |  |  |  |  | O=C(NN1CCCCC1)c1ccc2c(c1)N=C(c1ccc(Cl)cc1)c1ccccc1S2 [drawing 1831] | 92 | 
43 |  |  |  |  | O=C(NCCCC(F)(F)F)c1ccc2c(c1)N=C(c1ccccn1)c1ccccc1S2 [drawing 1832] | 28 | 
44 |  |  |  |  | CC(C)CNC(=O)c1ccc2c(c1)N=C(c1ccc(Cl)c(Cl)c1)c1ccccc1S2 [drawing 1833] | 16 | 
45 |  |  |  |  | O=C(NC1CCCCC1)c1ccc2c(c1)N=C(c1cccc(Cl)c1)c1ccccc1S2 [drawing 1834] | 44 | 
46 |  |  |  |  | CC(C)CNC(=O)c1ccc2c(c1)N=C(c1ccc(Cl)cc1F)c1ccccc1S2 [drawing 1835] | 41 | 
47 |  |  |  |  | Cc1ccc(CNC(=O)c2ccc3c(c2)N=C(c2ccc(Cl)s2)c2ccccc2S3)o1 [drawing 1836] | 13 | 
48 |  |  |  |  | O=C(NCCCC(F)(F)F)c1ccc2c(c1)N=C(c1ccsc1)c1ccccc1S2 [drawing 1837] | 28 | 
49 |  |  |  |  | CCCCNC(=O)c1ccc2c(c1)N=C(c1ccc(Cl)cn1)c1ccccc1S2 [drawing 1839] | 67 | 
50 |  |  |  |  | CCCCNC(=O)c1ccc2c(c1)N=C(c1ccc(Cl)cc1)c1ccccc1[S+]2[O-] (centres unmarked) [drawing 1840] | 52 | 
51 |  |  |  |  | CCCCNC(=O)c1ccc2c(c1)N=C(c1ccc(Cl)cn1)c1cc(F)ccc1S2 [drawing 1841] | 52 | 
52 |  |  |  |  | CC(C)CCNC(=O)c1ccc2c(c1)N=C(c1ccccn1)c1ccccc1S2 [drawing 1842] | 39 | 

Row | Structure (SMILES) | Binding rat Inh % [1, 9] [%] | Ki [1, 10] [nM] | Binding Human Inh % [2] [%] | Ki [2] [nM] | inhibition at 1 µM [8] [%] | also measured
53 | COc1cccc(C2=Nc3cc(C(=O)NC4CCC(F)(F)CC4)ccc3Sc3ccccc32)n1 [drawing 1193] | 82 | 0.794 | 88 | 0.501 |  | 
54 | O=C(NN1CCCCC1)c1ccc2c(c1)N=C(c1ccc(F)cc1)c1ccccc1S2 [drawing 1207] | 103 | 10 | 87 | 1.26 |  | 
55 | O=C(NN1CCCCCC1)c1ccc2c(c1)N=C(c1cccc(F)c1)c1ccccc1S2 [drawing 1215] | 97 | 6.31 | 103 | 2 |  | 
56 | O=C(NN1CCCCC1)c1ccc2c(c1)N=C(C1CCCCC1)c1ccccc1S2 [drawing 1216] | 94 |  | 65 | 2 |  | Ki [1]: 5.01 nM
